Experimental data published in patent US12070458B2, “Therapeutic agent composition and method of use, for treatment of mild congnitive impairment, depression, and psychological disorders” (priority 2018, dated 2024).
Residues, ends and D or L forms follow the SMILES beside them.

Legend:
[1] = tested on: 6-OHDA induced nigral-striatal lesion; assay: 6-OHDA induced nigral-striatal lesion, apomorphine-induced contralateral rotations; format: in vivo, Wistar rats; conditions: 1 mg (mg/kg) i.p. 2 hours post lesion; 7 days post-lesion, apomorphine 0.1 mg/kg; n=5; vehicle 290±18 or 292±21
Protocol: Twenty male Wistar rats (280-310 g) were used. After exposing the skull, 6-OHDA (8 μg in a base of 2 μl 0.9% saline containing 1% ascorbic acid) was administered into the right medial forebrain bundle (MFB) using co-ordinates AP +4.7 mm, R 1.6 mmv −8 mm under 3% halothane anaesthesia. 6-OHDA was injected through a 25G needle connected via a polyethylene catheter to a 100 μl Hamilton syringe. The 6-OHDA was infused by a microdialysis infusion pump at a rate of 0.5 μl/min. The needle was left in the brain for a further 3 minutes before being slowly withdrawn. The skin was sutured with 2.0 silk and the rats were allowed to recover from anaesthesia. The rats were housed in a holding room with free access to food and water at all times except during behavioural testing.
Cyclic PG was dissolved in saline. Four different doses of cPG (0, 0.1, 0.5, 1 mg/kg, Bachem) were administered intraperitoneally 2 hours post lesion.
At 7 days post-lesion, rats were injected with 0.1 mg/kg apomorphine and the number of contralateral rotations/hour was recorded and calculated using a computerised Rotameter (St Diego Instruments). Experimenter was blinded from the treatment groups.
Cyclic(tri(prolylglycyl)) was dissolved in saline solution. Four different doses of Cyclic(tri(prolylglycyl)) (0, 0.1, 0.5, 1 mg/kg, NeuroBiomed) were administered intraperitoneally 2 hours post lesion.
Cyclic Glycyl-2-Methyl Proline (cGMeP) was dissolved in saline solution. Four different doses of cGMeP (0, 0.1, 0.5, 1 mg/kg, NeuroBiomed) were administered intraperitoneally 2 hours post lesion.

[2] = tested on: damaged nerve tissue (crushed spinal cord); assay: Regeneration of damaged nerve tissue after crushing the spinal cord; format: in vivo, Wistar rats; conditions: 10 mM in saline, 0.75 ml four times a day at the site of injury for 14 days, versus saline
Protocol: Postnatal day 4 Wistar 10 rats were used for the study. The rats were divided in 2 groups: one group of 5 animals treated with drug solution, and the other group of animals treated with 0.9% sodium chloride (saline) solution. A drug solution containing cPG (from Bachem, 10 mM solution prepared in 0.9% sodium chloride (saline) solution) was administered four times a day in volumes of 0.75 ml to thoroughly flood the site of injury.
Two days after crushing the spinal cord, the dura of a rat was opened and a polyethylene tube was sutured to the vertebral spines and adjacent soft tissues so that the opening in one end lay directly over the injured part of the spinal cord. The tubing was brought through a subcutaneous tunnel so that its other end emerged at the base of the skull. A syringe adapter was attached to the external opening for injecting the drugs. All experiments were on a double-blind basis on 2 groups: one group of 5 animals treated with drug solution of 10 mM in saline solution, and the other group of 5 animals treated with 0.9% sodium chloride (saline) solution. Treatment of every animal was continued for 14 days, after which the animals were killed and histological sections prepared.
Postnatal day 4 Wistar 10 rats were used for the study. […]

## O=C1NCC(=O)N2CCC[C@H]2C(=O)NCC(=O)N2CCC[C@H]2C(=O)NCC(=O)N2CCCC12 (stereo partly drawn) [c(PG)3, cyclic (glycyl-L-prolylglycyl-L-prolylglycyl-L-prolyl)] (HELM PEPTIDE1{G.P.G.P.G.[O=C(C1CCCN1[*:1])[*:2]]}$PEPTIDE1,PEPTIDE1,1:R1-6:R2$$$V2.0)
[1]
  number of contralateral rotations/hour: 172±69 rotations/hour
[2]
  nerve growth into the lesion site (histology): prolific nerve growth

## O=C1NCC(=O)N2CCC[C@@H]12 [cPG, cyclic Prolyl Glycine]
[1]
  number of contralateral rotations/hour: 154±64 rotations/hour
[2]
  nerve growth into the lesion site (histology): most prolific nerve growth
